Data as given in patent US20240279687A1, “PEPTIDE NUCLEIC ACIDS FOR SPATIOTEMPORAL CONTROL OF CRISPR-CAS BINDING” (Yale University, priority 2021, published 2024).

Tests used:
dCas9-p300 / MYOD1 sgRNA [1] = biological target: T1, dCas9-p300 / MYOD1 sgRNA (UniProt Q09472+Q99ZW2, D10A/H840A); experiment: ChIP-qPCR of H3K27ac occupancy at the MYOD1 promoter region; assay type: cell-based, human; settings: 24 and 48 hours after PNA treatment (250 pmol), subsequent increase at 240 hours
T1 construct: P2A-PuroR (C)
Experimental: K562 cells (6×10^6 cells) were diluted to 0.4×10^6 cells/mL and cross-linked with a final concentration of 1% formaldehyde (Sigma-Aldrich, 252549) for each IP. Chromatin was prepared and sheared according to manufacturer protocol using SimpleChIP Enzymatic Chromatin IP Kit (Cell Signaling, #9003) and QSONICA Q800R3 sonicator for nuclear lysis. For each condition, 10 μg of chromatin was incubated with 3 μg of H3K27ac antibody (abcam ab4729) rotating overnight at 4° C. Chromatin was incubated with 30 μL of protein G magnetic beads (Cell Signaling, #70024) and washed, eluted, reverse cross-linked, and purified according to manufacturer protocol. ChIP-qPCR reactions were conducted in technical triplicate for 2% input and IP samples using a StepOnePLUS Real-Time PCR System (Applied Biosystems), SimpleChIP Universal qPCR Mastermix (Cell Signaling, #88989), and MYOD1 target specific primers (Table 8). Percent occupancy values were calculated by percent input method from 2% input samples for each replicate.

dCas9-p300 / MYOD1 sgRNA [2] = biological target: T1, dCas9-p300 / MYOD1 sgRNA; experiment: dCas9-p300 MYOD1 expression in stable K562 cells, RT-qPCR; assay type: cell-based, human; settings: 250 pmol PNA
Experimental: Stable K562-pLV-dCas9-p300 line was established from lentivirus generated from pLV-dCas9-p300-P2A-PuroR plasmid (Addgene: #83889) and Invitrogen Virapower packaging plasmids in 293FT cells (Invitrogen, R70007) and puromycin selection (2 μg/mL, Gibco). Lines were further transduced with lentivirus similarly generated with pLV-U6-UbC-eGFP-P2A-Bsr plasmids (Addgene: #83925) containing MYOD promoter targeted sgRNA sequences with blasticidin selection (5 μg/mL, Gibco, A1113903, Table 4).
6×10^6 stable dCas9-p300/MYOD1 sgRNA expressing K562 cells (Addgene #83889, Addgene #83925), were nucleofected with 250 pmol of specified PNA (non-targeting BFP or POU5F1) using a Lonza 4D nucleofector. At each specified time point 500 μL of cells were removed from each condition flask, spun down, and frozen. […] Expression relative to the untreated parent K562 line was recorded as fold-change and calculated using the ΔΔCT method. […]
For RNA extractions 0.5×10^6 K562 cells were spun down, washed once with PBS, homogenized using QIAshredder columns (QIAGEN 79656) and processed using QIAGEN RNeasy mini kits (74106) before eluting in 50 μL of water. […] Expression relative to the untreated K562 parent line was recorded as fold-change and calculated from averaged CT values using the ΔΔCT method.

KKK-GCACGCCCTTTCCAAACCT-KKK (Three lysine residues flank each end, further chemistry not given here) [MYOD1 p300 PNA]
H3K27ac occupancy at the MYOD1 promoter region (dCas9-p300 / MYOD1 sgRNA [1]): significant decrease | time by which epigenetic-mediated MYOD1 gene upregulation was driven down (dCas9-p300 / MYOD1 sgRNA [2]): ≤ 24 h | time by which expression returned to the fully upregulated state (dCas9-p300 / MYOD1 sgRNA [2]): ≤ 168 h
